Data: ChEMBL document CHEMBL5113481, “Design, synthesis and biological evaluation of quinoline-2-carbonitrile-based hydroxamic acids as dual tubulin polymerization and histone deacetylases inhibitors” (Eur J Med Chem, 2022)
Converted amounts (≈) assume the structure as drawn. The source made the active and inactive calls. The calls are words filed in the database; no cut-off is given here.

Assays:
[1] = Metabolic stability in rat liver microsomes assessed as half-life measured upto 6 hrs in presence of NADPH generating system by HPLC-MS/MS analysis; type: ADME, Microsome
[2] = test system: MCA-205; assay: Antitumor activity against mouse MCA-205 cells allografted in female C57BL/6 mouse assessed as complete tumor regression at 0.5 mg/kg, IT(Intratumoral); type: functional, organism-based
[3] = target: Tubulin; assay: Inhibition of tubulin polymerization in human HeLa cells assessed as microtubule network polymerization after 30 mins by immunofluorescence analysis; type: cell-based
[4] = target: Tubulin (Homo sapiens) (UniProt P68371+Q9H4B7+P0DPH7+P68366+Q13509+Q71U36+P04350+Q3ZCM7+P07437+P68363+Q9BQE3+Q6PEY2+Q13885+Q9BVA1+Q9BUF5); assay: Inhibition of tubulin polymerization in human MDA-MB-231 cells assessed as microtubule network polymerization at 250 nM after 30 mins by immunofluorescence analysis; type: cell-based
[5] = Antiproliferative activity against mouse MCA-205 cells after 72 hrs by CellTiter Glo assay; type: functional, cell-based; details: MCA-205, 72 h
[6] = Antitumor activity against mouse MCA-205 cells allografted in female C57BL/6 mouse assessed as increase in overall survival at 0.25 to 0.5 mg/kg, IT(Intratumoral); type: functional; details: dose lower […], dose upper 0.5 mg/kg
[7] = test system: MDA-MB-231; assay: Antiproliferative activity against human MDA-MB-231 cells after 72 hrs by CellTiter Glo assay; type: functional, cell-based; details: MDA-MB-231, 72 h
[8] = test system: HT-29; assay: Induction of DNA damage in human HT-29 cells at 0.5 to 10 nM assessed as increase in gamma-H2AX level and measured after 24 hrs by Western blot analysis; type: functional, cell-based; details: dose 0.5-10 nM
[9] = test system: SK-OV-3; assay: Antiproliferative activity against human SK-OV-3 cells after 72 hrs by CellTiter Glo assay; type: functional, cell-based; details: SK-OV-3, 72 h
[10] = Solubility of compound in water; type: physicochemical
[11] = target: T1, Protein deacetylase HDAC6 (Homo sapiens, UniProt Q9UBN7); assay: Inhibition of HDAC6 (unknown origin) measured by fluorometry assay
T1 sequence (Q9UBN7 whole entry): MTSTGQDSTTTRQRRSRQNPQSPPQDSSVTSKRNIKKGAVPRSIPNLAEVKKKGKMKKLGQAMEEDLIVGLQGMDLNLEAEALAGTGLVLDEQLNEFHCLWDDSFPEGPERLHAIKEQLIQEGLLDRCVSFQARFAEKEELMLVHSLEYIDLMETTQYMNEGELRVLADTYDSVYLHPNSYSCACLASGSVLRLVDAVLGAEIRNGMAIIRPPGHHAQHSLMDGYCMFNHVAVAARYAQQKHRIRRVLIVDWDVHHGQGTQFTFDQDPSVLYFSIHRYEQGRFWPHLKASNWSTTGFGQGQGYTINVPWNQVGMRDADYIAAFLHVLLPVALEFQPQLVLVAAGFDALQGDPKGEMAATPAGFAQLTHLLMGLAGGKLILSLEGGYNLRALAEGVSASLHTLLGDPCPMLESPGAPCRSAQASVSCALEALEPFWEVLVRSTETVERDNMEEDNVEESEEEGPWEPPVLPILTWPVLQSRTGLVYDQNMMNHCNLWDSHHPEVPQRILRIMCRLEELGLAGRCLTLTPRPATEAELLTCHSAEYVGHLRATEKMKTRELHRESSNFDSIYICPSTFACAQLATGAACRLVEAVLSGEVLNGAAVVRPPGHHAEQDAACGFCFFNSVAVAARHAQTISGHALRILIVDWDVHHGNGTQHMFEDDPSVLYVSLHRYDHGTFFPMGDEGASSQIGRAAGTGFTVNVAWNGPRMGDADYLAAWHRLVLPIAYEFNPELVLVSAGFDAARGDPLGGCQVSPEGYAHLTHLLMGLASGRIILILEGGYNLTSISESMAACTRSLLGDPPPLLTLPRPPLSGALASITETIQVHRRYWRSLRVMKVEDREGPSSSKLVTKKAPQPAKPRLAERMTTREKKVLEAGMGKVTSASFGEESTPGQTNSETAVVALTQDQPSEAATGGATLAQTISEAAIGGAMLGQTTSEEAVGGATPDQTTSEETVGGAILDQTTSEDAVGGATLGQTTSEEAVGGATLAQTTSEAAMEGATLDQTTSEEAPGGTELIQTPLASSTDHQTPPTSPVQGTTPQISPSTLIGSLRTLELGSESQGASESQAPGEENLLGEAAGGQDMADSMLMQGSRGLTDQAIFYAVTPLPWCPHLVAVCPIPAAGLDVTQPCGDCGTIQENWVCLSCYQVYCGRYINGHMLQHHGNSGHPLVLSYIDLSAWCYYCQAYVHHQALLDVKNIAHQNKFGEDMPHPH

[12] = Metabolic stability in human liver microsomes assessed as half-life measured upto 6 hrs in presence of NADPH generating system by HPLC-MS/MS analysis; type: ADME, Microsome
[13] = test system: HT-29; assay: Antiproliferative activity against human HT-29 cells after 72 hrs by CellTiter Glo assay; type: functional, cell-based; details: HT-29, 72 h
[14] = test system: K562; assay: Antiproliferative activity against imatinib-resistant human K562 cells over expressing MDR1 after 72 hrs by CellTiter Glo assay; type: functional, cell-based; details: K562, 72 h
[15] = test system: HT-29; assay: Cell cycle arrest in human HT-29 cells assessed as accumulation of cells in G2/M phase at 0.1 to 5 nM measured after 24 hrs by PI staining based flow cytometry method; type: functional; details: dose 0.1-5 nM, DDE = dose-dependent effect
[16] = test system: HT-29; assay: Cell cycle arrest in human HT-29 cells assessed as accumulation of cells in G2/M phase at 5 nM measured after 24 hrs by PI staining based flow cytometry method; type: functional
[17] = Metabolic stability in human liver microsomes assessed as intrinsic clearance per mg protein measured upto 6 hrs in presence of NADPH generating system by HPLC-MS/MS analysis; type: ADME, Microsome; details: read-out: CLH
[18] = target: T2, Histone deacetylase 8 (Homo sapiens, UniProt Q9BY41); assay: Inhibition of HDAC8 (unknown origin) measured by fluorometry assay
T2 sequence (Q9BY41 whole entry): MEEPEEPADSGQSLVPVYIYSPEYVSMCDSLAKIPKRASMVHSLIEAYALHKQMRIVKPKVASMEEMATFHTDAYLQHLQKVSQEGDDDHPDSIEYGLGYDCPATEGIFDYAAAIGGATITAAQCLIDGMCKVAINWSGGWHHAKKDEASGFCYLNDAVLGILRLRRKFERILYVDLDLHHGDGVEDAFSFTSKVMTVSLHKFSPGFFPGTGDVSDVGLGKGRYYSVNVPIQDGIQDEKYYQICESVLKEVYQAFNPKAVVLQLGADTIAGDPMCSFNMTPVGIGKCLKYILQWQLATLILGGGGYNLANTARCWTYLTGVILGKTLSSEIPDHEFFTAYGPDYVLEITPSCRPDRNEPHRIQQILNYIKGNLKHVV

[19] = Antitumor activity against mouse MCA-205 cells allografted in female C57BL/6 mouse assessed as decrease in tumor growth at 0.25 to 0.5 mg/kg, IT(Intratumoral); type: functional; parameters: scale not given: the % may be the effect or the level left; details: dose lower […], dose upper 0.5 mg/kg

For `COc1ccc(N(C)c2cc(C#N)nc3ccccc23)cc1/C=C/C(=O)NO`, the half-life [1] was 6.6 h, the Activity [2] was “Active” and the IC50 [3] was 20 nM. The inhibition [4] was “Active”, the IC50 [5] was 2.78 nM and the Activity [6] was 60%. For the same compound, the IC50 [7] was 0.7 nM, the Activity [8] was “Active” and the IC50 [9] was 0.6 nM. It also gave a solubility [10] of 68.7 µg/mL (≈ 183 µM), an IC50 [11] of 1000 nM and a half-life [12] of 32 h. The IC50 [13] was 0.62 nM, the IC50 [14] was 0.56 nM and the Activity [15] was “Dde”. It also gave an Activity [16] of over 95%, a microsomal CLint [17] of 0.36 µL/min/mg and an IC50 [18] of 150 nM. It also gave an Activity [19] of 70%.
